{"source": "ChEMBL document CHEMBL5465560", "about": "“Selectivity Literature for EUbOPEN Chemogenomic Library” (2024)", "key": {"[1]": {"biological_target": "Serine/threonine-protein kinase PAK 4 (Homo sapiens, UniProt O96013)", "sequence (O96013 whole entry, looked up)": "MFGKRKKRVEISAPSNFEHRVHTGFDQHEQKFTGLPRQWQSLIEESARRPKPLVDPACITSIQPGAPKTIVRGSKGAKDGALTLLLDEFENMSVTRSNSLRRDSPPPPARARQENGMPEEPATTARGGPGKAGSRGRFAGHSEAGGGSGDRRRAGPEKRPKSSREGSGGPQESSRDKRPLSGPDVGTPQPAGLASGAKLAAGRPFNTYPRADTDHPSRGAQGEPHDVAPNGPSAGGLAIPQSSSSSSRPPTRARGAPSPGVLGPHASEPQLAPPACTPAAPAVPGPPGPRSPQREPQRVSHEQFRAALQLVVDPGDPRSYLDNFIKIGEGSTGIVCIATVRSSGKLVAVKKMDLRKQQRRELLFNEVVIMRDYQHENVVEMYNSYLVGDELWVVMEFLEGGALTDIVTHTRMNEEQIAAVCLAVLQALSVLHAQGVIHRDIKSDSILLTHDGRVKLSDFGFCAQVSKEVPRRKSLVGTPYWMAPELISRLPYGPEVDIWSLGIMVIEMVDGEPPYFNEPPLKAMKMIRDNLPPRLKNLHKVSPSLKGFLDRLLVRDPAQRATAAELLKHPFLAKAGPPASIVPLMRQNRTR", "settings": "at 10 µM"}, "[2]": {"system": "Proto-oncogene tyrosine-protein kinase receptor Ret (Homo sapiens), P07949 [M918T]", "test": "(§1) Selectivity interaction (Ambit KINOMEscan and KiNATiv profiling in Jurkat cells) EUB0000090b RET", "format": "cell-based", "settings": "at 1 µM"}, "[3]": {"system": "Proto-oncogene tyrosine-protein kinase receptor Ret (Homo sapiens), P07949 [V804L]", "test": "as §1", "format": "cell-based", "settings": "at 1 µM"}, "[4]": {"system": "Proto-oncogene tyrosine-protein kinase receptor Ret (Homo sapiens), P07949 [V804M]", "test": "as §1", "format": "cell-based", "settings": "at 1 µM"}, "[5]": {"biological_target": "Proto-oncogene tyrosine-protein kinase receptor Ret (Homo sapiens, UniProt P07949)", "test": "as §1", "format": "cell-based", "settings": "at 1 µM"}, "[6]": {"biological_target": "T1, Serine/threonine-protein kinase TAO2 (Homo sapiens) (UniProt Q9UL54)", "T1 sequence (whole entry)": "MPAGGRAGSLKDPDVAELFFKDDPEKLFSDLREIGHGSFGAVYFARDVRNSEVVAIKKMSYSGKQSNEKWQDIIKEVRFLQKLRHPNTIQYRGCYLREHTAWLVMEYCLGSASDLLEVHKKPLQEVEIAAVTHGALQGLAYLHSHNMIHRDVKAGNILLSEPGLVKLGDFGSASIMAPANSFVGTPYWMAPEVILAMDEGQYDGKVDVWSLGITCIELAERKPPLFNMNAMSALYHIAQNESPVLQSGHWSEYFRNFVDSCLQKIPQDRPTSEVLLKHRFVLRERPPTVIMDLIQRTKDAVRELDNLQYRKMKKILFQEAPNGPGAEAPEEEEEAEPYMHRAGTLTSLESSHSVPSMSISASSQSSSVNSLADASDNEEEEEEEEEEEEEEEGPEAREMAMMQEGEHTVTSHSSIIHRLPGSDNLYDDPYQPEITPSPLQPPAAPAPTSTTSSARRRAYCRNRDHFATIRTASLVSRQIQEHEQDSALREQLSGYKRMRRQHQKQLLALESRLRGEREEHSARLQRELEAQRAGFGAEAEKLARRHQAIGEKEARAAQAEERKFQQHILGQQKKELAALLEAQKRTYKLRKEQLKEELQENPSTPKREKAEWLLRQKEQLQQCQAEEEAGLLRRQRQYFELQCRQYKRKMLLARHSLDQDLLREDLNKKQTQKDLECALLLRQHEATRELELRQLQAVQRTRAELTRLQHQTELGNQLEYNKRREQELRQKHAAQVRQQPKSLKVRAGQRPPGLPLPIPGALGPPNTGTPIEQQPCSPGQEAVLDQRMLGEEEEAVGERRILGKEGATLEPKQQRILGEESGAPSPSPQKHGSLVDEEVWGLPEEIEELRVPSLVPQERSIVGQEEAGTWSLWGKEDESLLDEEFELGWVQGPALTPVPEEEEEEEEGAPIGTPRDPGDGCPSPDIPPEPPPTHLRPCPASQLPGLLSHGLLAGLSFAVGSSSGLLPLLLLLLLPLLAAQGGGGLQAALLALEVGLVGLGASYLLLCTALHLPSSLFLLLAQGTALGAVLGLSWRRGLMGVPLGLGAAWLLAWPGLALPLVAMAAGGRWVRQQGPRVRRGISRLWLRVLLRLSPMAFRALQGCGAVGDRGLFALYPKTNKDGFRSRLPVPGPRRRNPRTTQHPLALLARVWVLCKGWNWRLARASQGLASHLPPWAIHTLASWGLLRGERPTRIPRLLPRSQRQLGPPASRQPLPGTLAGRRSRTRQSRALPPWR", "test": "Selectivity interaction (KinomeScan (DiscoverX)) EUB0001079a TAOK2", "settings": "at 1 µM"}, "[7]": {"biological_target": "Cyclin-dependent kinase 15 (Homo sapiens) (UniProt Q96Q40)", "sequence (Q96Q40 whole entry)": "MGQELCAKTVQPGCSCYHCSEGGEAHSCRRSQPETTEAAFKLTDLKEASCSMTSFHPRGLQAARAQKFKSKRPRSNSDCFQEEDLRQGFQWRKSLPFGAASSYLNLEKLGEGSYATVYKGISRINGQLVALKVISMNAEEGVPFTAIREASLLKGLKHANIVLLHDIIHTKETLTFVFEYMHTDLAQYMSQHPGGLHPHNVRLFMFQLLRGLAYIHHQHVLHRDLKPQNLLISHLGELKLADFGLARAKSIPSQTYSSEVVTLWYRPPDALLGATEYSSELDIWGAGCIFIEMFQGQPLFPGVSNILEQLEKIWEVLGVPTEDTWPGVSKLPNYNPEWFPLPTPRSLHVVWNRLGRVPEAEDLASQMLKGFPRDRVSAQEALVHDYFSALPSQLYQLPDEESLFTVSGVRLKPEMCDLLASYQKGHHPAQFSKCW", "test": "Selectivity interaction (KinomeScan (DiscoverX)) EUB0001619a CDK15", "settings": "at 1 µM"}, "[8]": {"biological_target": "Tyrosine-protein kinase Lyn (Homo sapiens, UniProt P07948)", "sequence (P07948 2-512 limits assumed)": "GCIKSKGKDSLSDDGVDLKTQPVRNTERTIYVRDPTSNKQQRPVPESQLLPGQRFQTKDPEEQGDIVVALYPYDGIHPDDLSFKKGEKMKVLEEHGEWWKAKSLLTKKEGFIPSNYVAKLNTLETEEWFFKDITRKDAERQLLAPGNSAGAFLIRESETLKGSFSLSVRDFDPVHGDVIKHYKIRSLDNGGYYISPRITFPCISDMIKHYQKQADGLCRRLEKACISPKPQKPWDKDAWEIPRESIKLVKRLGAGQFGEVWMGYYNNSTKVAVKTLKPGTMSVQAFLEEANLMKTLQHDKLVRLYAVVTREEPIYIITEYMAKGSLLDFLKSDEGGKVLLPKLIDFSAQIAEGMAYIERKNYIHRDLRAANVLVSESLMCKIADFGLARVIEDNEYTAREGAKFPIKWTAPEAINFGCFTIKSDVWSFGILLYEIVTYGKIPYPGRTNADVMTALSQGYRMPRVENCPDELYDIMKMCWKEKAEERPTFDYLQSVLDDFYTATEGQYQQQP", "test": "Selectivity interaction (KinomeScan (DiscoverX)) EUB0000045b LYN"}, "[9]": {"biological_target": "T2, MAP/microtubule affinity-regulating kinase 4 (Homo sapiens) (UniProt Q96L34)", "T2 sequence (whole entry)": "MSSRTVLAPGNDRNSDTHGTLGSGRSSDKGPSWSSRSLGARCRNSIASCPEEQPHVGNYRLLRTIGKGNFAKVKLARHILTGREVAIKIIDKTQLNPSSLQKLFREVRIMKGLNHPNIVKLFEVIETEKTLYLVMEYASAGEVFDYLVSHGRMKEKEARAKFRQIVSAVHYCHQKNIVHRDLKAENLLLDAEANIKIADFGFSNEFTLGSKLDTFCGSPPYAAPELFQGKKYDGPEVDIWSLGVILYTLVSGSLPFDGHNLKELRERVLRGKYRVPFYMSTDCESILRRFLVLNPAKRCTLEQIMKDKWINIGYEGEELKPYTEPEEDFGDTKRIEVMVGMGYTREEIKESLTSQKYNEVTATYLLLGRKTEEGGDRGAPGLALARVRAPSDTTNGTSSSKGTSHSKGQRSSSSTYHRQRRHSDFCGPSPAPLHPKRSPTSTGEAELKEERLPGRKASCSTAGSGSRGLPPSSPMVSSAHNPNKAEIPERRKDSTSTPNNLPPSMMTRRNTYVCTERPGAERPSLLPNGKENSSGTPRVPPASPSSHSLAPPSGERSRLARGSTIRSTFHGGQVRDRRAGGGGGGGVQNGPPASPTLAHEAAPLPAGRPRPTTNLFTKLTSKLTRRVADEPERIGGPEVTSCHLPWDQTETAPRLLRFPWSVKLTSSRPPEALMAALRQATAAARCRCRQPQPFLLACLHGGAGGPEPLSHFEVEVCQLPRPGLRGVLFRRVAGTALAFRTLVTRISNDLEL", "test": "Selectivity interaction (ActivX KiNativ screen (kinase selectivity in THP-1 cell lysates)) EUB0000639a MARK4", "format": "subcellular", "settings": "lysate, at 1 µM"}, "[10]": {"biological_target": "Homeodomain-interacting protein kinase 3 (Homo sapiens, UniProt Q9H422)", "sequence (Q9H422 whole entry, looked up)": "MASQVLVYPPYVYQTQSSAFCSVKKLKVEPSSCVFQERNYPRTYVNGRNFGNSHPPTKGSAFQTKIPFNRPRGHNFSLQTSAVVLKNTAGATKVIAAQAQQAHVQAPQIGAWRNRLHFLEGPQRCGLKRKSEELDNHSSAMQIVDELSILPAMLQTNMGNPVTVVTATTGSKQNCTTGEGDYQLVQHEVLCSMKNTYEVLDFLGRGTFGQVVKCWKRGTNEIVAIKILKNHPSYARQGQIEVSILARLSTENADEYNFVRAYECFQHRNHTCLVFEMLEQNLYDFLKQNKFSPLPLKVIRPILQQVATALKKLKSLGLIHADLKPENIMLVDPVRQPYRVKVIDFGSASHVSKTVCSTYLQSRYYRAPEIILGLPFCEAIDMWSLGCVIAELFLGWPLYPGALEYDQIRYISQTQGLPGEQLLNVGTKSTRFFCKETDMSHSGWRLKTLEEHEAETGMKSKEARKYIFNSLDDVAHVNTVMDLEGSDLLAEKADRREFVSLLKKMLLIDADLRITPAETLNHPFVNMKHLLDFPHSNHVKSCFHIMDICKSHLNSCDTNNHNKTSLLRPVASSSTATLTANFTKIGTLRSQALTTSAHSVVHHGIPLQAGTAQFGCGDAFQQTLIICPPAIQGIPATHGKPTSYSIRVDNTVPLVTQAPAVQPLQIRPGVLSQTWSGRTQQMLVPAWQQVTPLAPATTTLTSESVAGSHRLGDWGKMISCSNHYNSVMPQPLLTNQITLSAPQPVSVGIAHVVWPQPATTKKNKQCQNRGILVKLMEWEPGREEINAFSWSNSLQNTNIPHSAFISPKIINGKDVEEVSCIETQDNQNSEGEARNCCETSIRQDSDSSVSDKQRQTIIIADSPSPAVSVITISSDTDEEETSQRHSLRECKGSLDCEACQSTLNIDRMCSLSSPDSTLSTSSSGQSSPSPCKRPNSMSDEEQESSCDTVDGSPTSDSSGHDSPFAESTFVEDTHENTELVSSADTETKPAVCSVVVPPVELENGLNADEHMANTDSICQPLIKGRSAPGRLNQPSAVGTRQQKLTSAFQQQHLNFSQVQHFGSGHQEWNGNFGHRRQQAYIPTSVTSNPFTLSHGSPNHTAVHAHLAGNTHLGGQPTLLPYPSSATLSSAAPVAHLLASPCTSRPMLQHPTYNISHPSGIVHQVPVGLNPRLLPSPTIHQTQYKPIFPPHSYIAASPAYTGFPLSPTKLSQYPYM", "test": "Selectivity interaction (ProQinase) EUB0000171b HIPK3"}, "[11]": {"biological_target": "Serine/threonine-protein kinase tousled-like 2 (Homo sapiens) (UniProt Q86UE8)", "sequence (Q86UE8 whole entry, looked up)": "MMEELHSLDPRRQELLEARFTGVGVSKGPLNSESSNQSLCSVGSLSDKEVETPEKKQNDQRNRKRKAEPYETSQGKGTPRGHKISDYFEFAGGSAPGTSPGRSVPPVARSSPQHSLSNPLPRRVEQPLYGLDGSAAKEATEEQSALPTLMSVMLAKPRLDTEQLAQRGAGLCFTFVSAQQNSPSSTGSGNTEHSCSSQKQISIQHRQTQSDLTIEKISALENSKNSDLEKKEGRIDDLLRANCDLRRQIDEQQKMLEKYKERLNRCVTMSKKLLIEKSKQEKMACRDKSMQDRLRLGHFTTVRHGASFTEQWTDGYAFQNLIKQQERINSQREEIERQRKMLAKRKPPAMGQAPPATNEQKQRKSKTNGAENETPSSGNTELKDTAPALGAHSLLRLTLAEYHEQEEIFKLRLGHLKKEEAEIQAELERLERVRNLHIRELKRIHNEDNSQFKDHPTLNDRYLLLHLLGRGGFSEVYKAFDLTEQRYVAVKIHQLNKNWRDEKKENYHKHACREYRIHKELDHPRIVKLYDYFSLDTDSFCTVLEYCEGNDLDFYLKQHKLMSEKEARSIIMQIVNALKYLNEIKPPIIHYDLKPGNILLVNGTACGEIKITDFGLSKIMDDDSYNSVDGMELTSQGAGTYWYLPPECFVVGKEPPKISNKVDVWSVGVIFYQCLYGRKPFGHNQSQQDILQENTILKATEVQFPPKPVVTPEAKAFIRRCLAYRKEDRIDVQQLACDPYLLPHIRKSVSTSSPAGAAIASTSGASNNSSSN", "test": "Selectivity interaction (KinomeScan (DiscoverX)) EUB0000092b TLK2", "settings": "at 10 µM"}, "[12]": {"biological_target": "Phosphatidylinositol 4-kinase type 2-alpha (Homo sapiens) (UniProt Q9BTU6)", "sequence (Q9BTU6 whole entry)": "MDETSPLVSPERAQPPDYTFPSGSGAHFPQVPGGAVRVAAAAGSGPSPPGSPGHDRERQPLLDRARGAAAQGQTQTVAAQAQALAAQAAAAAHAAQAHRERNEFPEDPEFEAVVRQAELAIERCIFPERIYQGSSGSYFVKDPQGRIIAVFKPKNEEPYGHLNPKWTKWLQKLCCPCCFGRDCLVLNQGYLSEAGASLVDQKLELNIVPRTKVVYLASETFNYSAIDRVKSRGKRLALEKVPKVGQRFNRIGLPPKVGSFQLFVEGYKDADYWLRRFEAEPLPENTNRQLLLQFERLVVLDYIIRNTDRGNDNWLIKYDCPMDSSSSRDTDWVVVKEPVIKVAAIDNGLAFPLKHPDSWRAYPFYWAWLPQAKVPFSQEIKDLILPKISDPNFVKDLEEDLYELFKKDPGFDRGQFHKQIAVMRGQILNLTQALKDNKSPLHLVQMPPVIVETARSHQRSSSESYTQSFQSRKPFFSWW", "test": "Selectivity interaction (Adapta Assay) EUB0001632a PI4K2A", "settings": "at 10 µM"}, "[13]": {"biological_target": "Vascular endothelial growth factor receptor 1 (Homo sapiens) (UniProt P17948)", "test": "Selectivity interaction (Kinase screening (Nanosyn)) EUB0000604a FLT1"}, "[14]": {"biological_target": "Protein kinase C alpha type (Homo sapiens, UniProt P17252)", "test": "Selectivity interaction (Kinase screening (Upstate/Millipore)) EUB0000604a PRKCA"}}, "data": [{"smiles": "CCN(CC)CCCCNc1ncc2cc(-c3cc(OC)cc(OC)c3)c(NC(=O)NC(C)(C)C)nc2n1", "values": [{"measurement": "% of control", "setting": "[1]", "value": 100, "unit": "%"}]}, {"smiles": "CN(C)C/C=C/C(=O)Nc1ccc(C(=O)N2CCCC(Nc3ncc(Cl)c(-c4c[nH]c5ccccc45)n3)C2)cc1", "note": "(stereo unspecified)", "values": [{"measurement": "% of control", "setting": "[2]", "value": 68, "unit": "%"}, {"measurement": "% of control", "setting": "[3]", "value": 71, "unit": "%"}, {"measurement": "% of control", "setting": "[4]", "value": 89, "unit": "%"}, {"measurement": "% of control", "setting": "[5]", "value": 90, "unit": "%"}]}, {"smiles": "Nc1cnc(N2CCc3cc(S(=O)(=O)Nc4c(F)cc(Cl)cc4F)cc(N4CCCC4=O)c32)nc1", "note": "[TP-020n]", "values": [{"measurement": "% of control", "setting": "[6]", "value": 78, "unit": "%"}]}, {"smiles": "N#Cc1cccc(-c2c[nH]c3ncnc(N4CCOCC4)c23)c1", "values": [{"measurement": "% of control", "setting": "[7]", "value": 100, "unit": "%"}]}, {"smiles": "C=CC(=O)Nc1cc(-n2c(=O)ccc3cnc4ccc(-c5ccc(NS(C)(=O)=O)cc5)cc4c32)ccc1C", "values": [{"measurement": "% of control", "setting": "[8]; at 1 µM", "value": 92, "unit": "%"}, {"measurement": "% of control", "setting": "[8]; at 10 µM", "value": 91, "unit": "%"}]}, {"smiles": "CC[C@@H]1[C@H](F)C(=O)N[C@@H]1COc1nccc2cc(C(N)=O)c(OC)cc12", "note": "[ZIMLOVISERTIB]", "values": [{"measurement": "% of inhibition", "setting": "[9]", "value": 17.1, "unit": "%"}]}, {"smiles": "C=CC(=O)Nc1cccc(C(=O)Nc2ccc(Nc3cc(-c4[nH]c(SC)nc4C)ccn3)cc2)c1", "values": [{"measurement": "% of control", "setting": "[10]; at 1 µM", "value": 93, "unit": "%"}, {"measurement": "% of control", "setting": "[10]; at 5 µM", "value": 90, "unit": "%"}]}, {"smiles": "CCC(=O)N1CCN(c2ccc(-n3c(=O)ccc4cnc5ccc(-c6cnc7ccccc7c6)cc5c43)cc2C(F)(F)F)CC1", "values": [{"measurement": "% of control", "setting": "[11]", "value": 100, "unit": "%"}]}, {"smiles": "Cn1cc(-n2cnc3c(NCc4nc5cc(Cl)c(Cl)cc5[nH]4)nc(N4CCOCC4)nc32)cn1", "values": [{"measurement": "% of inhibition", "setting": "[12]", "value": 1.38, "unit": "%"}]}, {"smiles": "Cc1cnc(Nc2ccc(F)cc2Cl)nc1-c1c[nH]c(C(=O)N[C@H](CO)c2cccc(Cl)c2)c1", "values": [{"measurement": "% of inhibition", "setting": "[13]", "value": 0, "unit": "%"}, {"measurement": "% of inhibition", "setting": "[14]", "value": 12, "unit": "%"}]}]}
